{
  "source": "patent US20250230193A1",
  "about": "“CYCLIC COMPOUND HAVING SELECTIVE KRAS INHIBITORY EFFECT ON HRAS AND NRAS” (CHUGAI SEIYAKU KABUSHIKI KAISHA, priority 2022, published 2025)",
  "key": {"[1]": {"target": "GDP-bound NRAS wild-type protein (Homo sapiens, UniProt P01111)", "sequence (P01111 whole entry)": "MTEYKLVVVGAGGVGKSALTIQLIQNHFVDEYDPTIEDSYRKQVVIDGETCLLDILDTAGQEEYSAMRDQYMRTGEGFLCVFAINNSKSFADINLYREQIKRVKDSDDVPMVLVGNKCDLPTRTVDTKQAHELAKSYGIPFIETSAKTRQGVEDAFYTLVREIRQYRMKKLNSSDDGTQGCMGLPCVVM", "assay": "Binding to NRAS by surface plasmon resonance (SPR), Single Cycle Kinetics", "conditions": "for NRAS/KRAS (ratio of KD value for NRAS to KD value for KRAS) / NRAS/KRAS (ratio of KD value with respect to NRAS to KD value with respect to KRAS): GDP-bound NRAS wild-type vs GDP-bound KRAS wild-type"}, "[2]": {"target": "GDP-bound HRAS wild-type protein (Homo sapiens, UniProt P01112)", "sequence (P01112 whole entry)": "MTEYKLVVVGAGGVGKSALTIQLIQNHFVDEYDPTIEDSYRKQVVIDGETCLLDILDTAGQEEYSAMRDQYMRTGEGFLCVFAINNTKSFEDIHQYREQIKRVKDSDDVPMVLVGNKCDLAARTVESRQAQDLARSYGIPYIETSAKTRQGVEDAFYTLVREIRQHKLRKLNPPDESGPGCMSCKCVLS", "assay": "Binding to HRAS by surface plasmon resonance (SPR), Single Cycle Kinetics", "conditions": "for HRAS/KRAS (ratio of KD value for HRAS to KD value for KRAS) / HRAS/KRAS (ratio of KD value with respect to HRAS to KD value with respect to KRAS): GDP-bound HRAS wild-type vs GDP-bound KRAS wild-type"}},
  "note": "Where a SMILES comes first, the peptide text is derived from it. Bridges are numbered along the chain shown (N, C = ends). [ ]: non-standard residue; d: D form. The star is where a group is joined. hPhe(3-Cl-4-CF3) = N[C@@H](CCc1ccc(C(F)(F)F)c(Cl)c1)C(=O)O; NPrPhe(4-CF3) = CCCN[C@@H](Cc1ccc(C(F)(F)F)cc1)C(=O)O; NMeGly(cPent) = CN[C@H](C(=O)O)C1CCCC1; NMeD = CN[C@@H](CC(=O)O)C(=O)O; NMeL = CN[C@@H](CC(C)C)C(=O)O; NMeNva = CCC[C@H](NC)C(=O)O; Morpholide = C1CN(*)CCO1; Ac5c = NC1(C(=O)O)CCCC1; Ac4c = NC1(C(=O)O)CCC1; NPrGly = CCCNCC(=O)O; X25 = CC1(C)CCN(*)C1; Sar = CNCC(=O)O",
  "data": [
    {"smiles": "CCO[C@@H]1C[C@H]2C(=O)NC3(CCC3)C(=O)N(C)[C@@H](C(CC)CC)C(=O)N(C)[C@H](CC)CC(=O)N(C)[C@@H](CC)C(=O)N[C@@H]([C@@H](C)CC)C(=O)N(C)CC(=O)N(C)[C@H]3C/C=C\\CCN(C3=O)[C@@H](Cc3ccc(C(F)(F)F)cc3)C(=O)N(C)CC(=O)N[C@@H](CCc3cc(F)c(C(F)(F)F)c(F)c3)C(=O)N2C1", "note": "[PP1624]", "values": [
      {"measurement": "NRAS/KRAS (ratio of KD value for NRAS to KD value for KRAS)", "setting": "[1]; KD ratio, SPR", "value": "A (a compound having 10 or more and less than 20 is denoted as A)"},
      {"measurement": "HRAS/KRAS (ratio of KD value for HRAS to KD value for KRAS)", "setting": "[2]; KD ratio, SPR", "value": "A (a compound having 10 or more and less than 20 is denoted as A)"}
    ]},
    {"smiles": "CCC(CC)[C@H]1C(=O)N(C)[C@H](C(=O)N(C)C)CC(=O)N(C)[C@@H](COC)C(=O)N[C@@H]([C@@H](C)CC)C(=O)N(C)CC(=O)N(C)[C@H]2C/C=C\\CCN(C2=O)[C@@H](Cc2ccc(C)cc2)C(=O)N(C)CC(=O)N[C@@H](CCc2ccc(Cl)c(Cl)c2)C(=O)N2C[C@H](OC(C)C)C[C@H]2C(=O)N(C)C2(CC(C)(C)C2)C(=O)N1C", "note": "[PP2814]", "values": [
      {"measurement": "NRAS/KRAS (ratio of KD value with respect to GDP-bound NRAS wild-type protein to KD value with respect to KRAS)", "setting": "[1]; KD ratio NRAS/KRAS, class symbols", "value": "AA (a compound having 20 or more is denoted as AA)"},
      {"measurement": "HRAS/KRAS (ratio of KD value with respect to GDP-bound HRAS wild-type protein to KD value with respect to KRAS)", "setting": "[2]; KD ratio HRAS/KRAS, class symbols", "value": "A (a compound having 10 or more and less than 20 is denoted as A)"}
    ]},
    {"smiles": "CCO[C@@H]1C[C@H]2C(=O)NC3(CCC3)C(=O)N(C)[C@@H]([C@H](C)CC)C(=O)N(C)[C@H](C(=O)N3CCOCC3)CC(=O)N(C)[C@@H](CC(C)C)C(=O)N[C@@H]([C@@H](C)CC)C(=O)N(C)CC(=O)N(C)[C@H]3CCCCCN(C3=O)[C@@H](Cc3ccc(C(F)(F)F)cc3)C(=O)N(C)CC(=O)N[C@@H](CCc3cc(F)c(C(F)(F)F)c(F)c3)C(=O)N2C1", "note": "[PP0821]", "values": [
      {"measurement": "NRAS/KRAS (ratio of KD value with respect to NRAS to KD value with respect to KRAS)", "setting": "[1]; KD ratio, SPR", "value": "A (a compound having 10 or more and less than 20 is denoted as A)"},
      {"measurement": "HRAS/KRAS (ratio of KD value with respect to HRAS to KD value with respect to KRAS)", "setting": "[2]; KD ratio, SPR", "value": "B (a compound having 3 or more and less than 10 is denoted as B)"}
    ]},
    {"smiles": "CCO[C@@H]1C[C@H]2C(=O)NC3(CC(C)(C)C3)C(=O)N(C)[C@@H](C(CC)CC)C(=O)N(C)[C@H](C(=O)N(C)C)CC(=O)N(C)[C@@H](C(C)C)C(=O)N[C@@H]([C@@H](C)CC)C(=O)N(C)CC(=O)N(C)[C@H]3C/C=C\\CCN(C3=O)[C@@H](CC3CCC(F)(F)CC3)C(=O)N(C)CC(=O)N[C@@H](CCc3ccc(C(F)(F)F)c(Cl)c3)C(=O)N2C1", "note": "[PP2492]", "values": [
      {"measurement": "NRAS/KRAS (ratio of KD value with respect to NRAS to KD value with respect to KRAS)", "setting": "[1]; SPR", "value": "AA (a compound having 20 or more is denoted as AA)"},
      {"measurement": "HRAS/KRAS (ratio of KD value with respect to HRAS to KD value with respect to KRAS)", "setting": "[2]; SPR", "value": "A (a compound having 10 or more and less than 20 is denoted as A)"}
    ]},
    {"smiles": "CCO[C@@H]1C[C@H]2C(=O)NC3(CCC3)C(=O)N(C)[C@@H](C3CCCC3)C(=O)N(CCC3CCC3)[C@H](C(=O)N(C)C)CC(=O)N(C)[C@@H](CC)C(=O)N[C@@H]([C@@H](C)CC)C(=O)N(C)CC(=O)N(C)[C@H]3CCCCCN(C3=O)[C@@H](Cc3ccc(C(F)(F)F)cc3)C(=O)N(C)CC(=O)N[C@@H](CCc3cc(F)c(C(F)(F)F)c(F)c3)C(=O)N2C1", "note": "[PP0635]", "values": [
      {"measurement": "NRAS/KRAS (ratio of KD value with respect to GDP-bound NRAS wild-type protein to KD value with respect to KRAS)", "setting": "[1]; KD ratio NRAS/KRAS, SPR", "value": "B (a compound having 3 or more and less than 10 is denoted as B)"},
      {"measurement": "HRAS/KRAS (ratio of KD value with respect to GDP-bound HRAS wild-type protein to KD value with respect to KRAS)", "setting": "[2]; KD ratio HRAS/KRAS, SPR", "value": "B (a compound having 3 or more and less than 10 is denoted as B)"}
    ]},
    {"smiles": "CCC[C@H]1C(=O)N[C@@H]([C@@H](C)CC)C(=O)N(CCC)CC(=O)N(C)CC(=O)N(CCC)[C@@H](Cc2ccc(C(F)(F)F)cc2)C(=O)N(C)CC(=O)N[C@@H](CCc2ccc(C(F)(F)F)c(Cl)c2)C(=O)N2CCC[C@H]2C(=O)NC2(CCC2)C(=O)N(C)[C@@H](C2CCCC2)C(=O)N(C)[C@H](C(=O)N2CCOCC2)CC(=O)N1C", "note": "[PP1947] ([NMeNva]I[NPrGly][Sar][NPrPhe(4-CF3)][Sar][hPhe(3-Cl-4-CF3)]P[Ac4c][NMeGly(cPent)][NMeD]-Morpholide; lactam N-11)", "values": [
      {"measurement": "NRAS/KRAS (ratio of KD value for NRAS to KD value for KRAS)", "setting": "[1]; KD ratio, SPR", "value": "B (a compound having 3 or more and less than 10 is denoted as B)"},
      {"measurement": "HRAS/KRAS (ratio of KD value for HRAS to KD value for KRAS)", "setting": "[2]; KD ratio, SPR", "value": "B (a compound having 3 or more and less than 10 is denoted as B)"}
    ]},
    {"smiles": "CCCN1C(=O)CN(C)C(=O)CN(C)C(=O)[C@H]([C@@H](C)CC)NC(=O)[C@H](CC(C)C)N(C)C(=O)C[C@@H](C(=O)N2CCC(C)(C)C2)N(C)C(=O)[C@H](C2CCCC2)N(C)C(=O)C2(CCCC2)NC(=O)[C@@H]2CCCN2C(=O)[C@H](CCc2ccc(C(F)(F)F)c(Cl)c2)NC(=O)CN(C)C(=O)[C@@H]1Cc1ccc(C(F)(F)F)cc1", "note": "[PP0177] ([NMeL]I[Sar][Sar][NPrPhe(4-CF3)][Sar][hPhe(3-Cl-4-CF3)]P[Ac5c][NMeGly(cPent)][NMeD]-X25; lactam N-11)", "values": [
      {"measurement": "NRAS/KRAS (ratio of KD for GDP-bound NRAS wild-type to KD for KRAS)", "setting": "[1]; KD ratio NRAS/KRAS, SPR", "value": "B (a compound having 3 or more and less than 10 is denoted as B)"},
      {"measurement": "HRAS/KRAS (ratio of KD for GDP-bound HRAS wild-type to KD for KRAS)", "setting": "[2]; KD ratio HRAS/KRAS, SPR", "value": "C (A compound having a KD ratio of 0.1 or more and less than 3 is denoted as C)"}
    ]}
  ]
}
